Data: US5919790A, “Hydroxamate inhibitors of interleukin-1β converting enzyme” (Warner-Lambert Company, priority 1997, dated 1999)
Read-outs that look alike come from different tables or passages of the source.

How the values were obtained:
[1] = molecular target: T1, ICE (interleukin-1β converting enzyme) (Homo sapiens, UniProt P29466); assay: ICE inhibition, Ki, fluorescence assay with Ac-Tyr-Val-Ala-Asp-AMC; type: biochemical; conditions: 15 μM substrate Ac-Tyr-Val-Ala-Asp-AMC; 0.24 nM ICE; reversible, competitive model
T1 sequence (P29466 120-297 limits assumed): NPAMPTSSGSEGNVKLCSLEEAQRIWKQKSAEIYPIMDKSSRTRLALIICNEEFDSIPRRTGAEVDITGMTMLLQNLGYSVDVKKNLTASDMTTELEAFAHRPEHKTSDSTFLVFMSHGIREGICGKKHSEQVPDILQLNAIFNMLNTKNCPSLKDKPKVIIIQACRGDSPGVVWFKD
T1 sequence (P29466 317-404 limits assumed): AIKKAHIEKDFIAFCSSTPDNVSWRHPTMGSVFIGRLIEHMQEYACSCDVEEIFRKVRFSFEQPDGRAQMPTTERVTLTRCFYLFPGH
Protocol: Substrate hydrolysis is monitored for 300 seconds by observing the fluorescence of released AMC using excitation at 380 nm and emission at 460 nm. Mean rates of substrate hydrolysis are evaluated by linear-regression analysis of the fluorescence vs time traces. […] ICE Colorimetric Dose-Response (IC50) Assay

[2] = molecular target: T1, ICE (interleukin-1β converting enzyme); assay: ICE Colorimetric Dose-Response (IC50) Assay; type: biochemical; conditions: 50 μM Ac-Tyr-Val-Ala-Asp-pNA, 60 min preincubation, pH 7.5, 25° C.
Protocol: Substrate hydrolysis is monitored for 300 seconds by observing the fluorescence of released AMC using excitation at 380 nm and emission at 460 nm. Mean rates of substrate hydrolysis are evaluated by linear-regression analysis of the fluorescence vs time traces. […] ICE Colorimetric Dose-Response (IC50) Assay Diluted inhibitor stocks are prepared by two-fold serial dilution from a primary stock whose concentration is selected (based on screening results or on prior attempts at IC50 evaluation) to achieve approximately 95% inhibition in the most concentrated well. Aliquots of each dilution are transferred to a microtitre plate in triplicate. […] The activated enzyme is then aliquoted into wells containing inhibitor or vehicle, and the plate is preincubated for 60 minutes at ambient temperature. Substrate ([…]) is added to each well to a final concentration of 50 μM, and plates are placed in the microtitre plate-reader thermostated to 25° C. Beginning 5 minutes after addition of substrate, absorbance (405 nm) of wells is monitored for 1 hour, and activity is calculated as the mean rate of change in absorbance during this interval.

[3] = test system: IL-1β production in human peripheral blood mononuclear cells (PBMCs); assay: inhibition of LPS-stimulated IL-1β production in human PBMCs (ELISA); type: cell-based; conditions: LPS stimulated overnight, mature IL-1β by ELISA
Description: (§1) Further evidence that compounds of Formula I are inhibitors of ICE is provided by their ability to inhibit IL-1β production in human peripheral blood mononuclear cells (PBMCs) as described herein. PBMCs are isolated from heparinized blood by centrifugation over a ficoll cushion, then washed three times with phosphate-buffered saline. PBMCs are suspended in a medium containing RPMI 1640 with glutamine, penicillin, streptomycin and 2% human AB serum, then plated at 10^6 cells per well in 96 well flat bottom plates. PBMCs are stimulated overnight with 10 ngmL of lipopolysaccharide (LPS, E. coli strain 0111:B4; Calbiochem) in the presence or absence of a compound of Formulas I or II. Medium is harvested and the level of mature IL-1β was determined using an ELISA kit from R & D Systems. Cells were cultured for an additional 4 hours in the presence of 3-(4,5-dimethylthiazol-2-yl)-2,5-diphenyltetrazolium bromide (MTT) to determine viability.

PBMC viability (MTT) = type: cell-based; conditions: human PBMCs, additional 4 hours, read-out: PBMC TC50
Description: as §1

Ich-2 = molecular target: T2, Ich-2 (Homo sapiens, UniProt P49662); assay: Ich-2 Colorimetric Dose-Response (IC50) Assay; type: biochemical; conditions: 64 nM enzyme, 60 μM Ac-Leu-Glu-Val-Asp-pNA
T2 sequence (P49662 81-270 limits assumed): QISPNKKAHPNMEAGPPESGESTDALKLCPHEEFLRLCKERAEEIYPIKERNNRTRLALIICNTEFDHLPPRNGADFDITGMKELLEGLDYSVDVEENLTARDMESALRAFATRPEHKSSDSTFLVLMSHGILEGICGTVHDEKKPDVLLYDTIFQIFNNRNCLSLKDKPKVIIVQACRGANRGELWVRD
T2 sequence (P49662 290-377 limits assumed): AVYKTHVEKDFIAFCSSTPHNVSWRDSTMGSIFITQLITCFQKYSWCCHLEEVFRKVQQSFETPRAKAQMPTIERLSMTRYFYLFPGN
Protocol: Diluted inhibitor stocks are prepared by two-fold serial dilution from a primary stock whose concentration is selected (based on screening results or on prior attempts at IC50 evaluation) to achieve approximately 95% inhibition in the most concentrated well. Aliquots of each dilution are transferred to a microtitre plate in triplicate.
ICE enzyme is diluted to approximately 24 nM in HGE buffer (100 mM Hepes pH 7.5, 0.5 mM EDTA, 20% glycerol, 0.1% Bovine Serum Albumin (BSA), and activated by adding dithiothreitol (DTT) to a final concentration of 5 mM. The activated enzyme is then aliquoted into wells containing inhibitor or vehicle, and the plate is preincubated for 60 minutes at ambient temperature. Substrate (Ac-Tyr-Val-Ala-Asp-pNA) is added to each well to a final concentration of 50 μM, and plates are placed in the microtitre plate-reader thermostated to 25° C. Beginning 5 minutes after addition of substrate, absorbance (405 nm) of wells is monitored for 1 hour, and activity is calculated as the mean rate of change in absorbance during this interval.
Ich-2 Colorimetric Dose-Response (IC50 Assay
Inhibition of Ich-2 enzyme is assayed as described above for ICE, except that enzyme is used at 64 nM, and 60 μM of the Ich-2-specific substrate Ac-Leu-Glu-Val-Asp-pNA is used instead of the ICE substrate Ac-Tyr-Val-Ala-Asp-pNA.

SMILES | Ki [1] [µM] | IC50 [2] [µM] | IC50 ([3]; PBMC) [µM] | CC50 at 4 h (PBMC viability (MTT)) [µM] | IC50 (Ich-2) [µM] | IC50 ([3]; read-out: PBMC IC50) [µM]
O=C(O)CC(NC(=O)OCc1ccccc1)C(=O)CON1C(=O)Cc2ccccc21 (centres unmarked) [Example 4, 3-Benzyloxycarbonylamino-5-(2-oxo-2,3-dihydro-indol-1-yloxy)-4-oxo-pentannic acid] | 1.6 | 3.1 | 1000 | 1000 | 0.079 | 
O=C(O)C[C@H](NC(=O)OCc1ccccc1)C(=O)CON1CCCC1=O [Example 2, 3-Benzyloxycarbonylamino-4-oxo-5-(2-oxo-pyrrolidin-1-yloxy)-pentanoic acid] | 87 | 397 |  |  |  | 
CC(NC(=O)C(NC(=O)OCc1ccccc1)C(C)C)C(=O)NC(CC(=O)O)C(=O)CON1C(=O)Cc2ccccc21 (centres unmarked) [Example 8, 3-[2-(2-benzyloxicarbonylamino-3-methyl-butyrylamino)-propionylamino]-4-oxo-5-(2-oxo-2,3-dihydro-indol-1-yloxy)-pentanoic acid] | 0.002 | 0.003 | 3 |  | 0.005 | 
O=C(O)CC(NC(=O)OCc1ccccc1)C(=O)CONC(=O)Cc1ccccc1 (centres unmarked) [Example 1, 3-Benzyloxycarbonylamino-4-oxo-5-phenylacetylaminooxy-pentanoic acid] | 79 | 260 | 817 |  |  | 
O=C(O)C[C@H](NC(=O)OCc1ccccc1)C(=O)CON1C(=O)C2C3C=CC(O3)C2C1=O (some centres unmarked) [Example 3, 3-Benzyloxycarbonylamino-5-(3,5-dioxo-10-oxa-4-aza-tricyclo[5.2.1.0^2,6]dec-8-en-4-yloxy)-4-oxo-pentanoic acid] | 2.1 | 0.46 | 1000 | 1000 | 0.1 | 
COC(=O)CC1CCCC2CC(=O)N(OCC(=O)C(CC(=O)O)NC(=O)C(C)NC(=O)C(NC(=O)OCc3ccccc3)C(C)C)C12 (centres unmarked) [Example 7] | 0.007 | 0.026 |  |  | 0.14 | 4.8
O=C(O)CC(NC(=O)OCc1ccccc1)C(=O)CON1C(=O)CC2CCCCC21 (centres unmarked) [Example 6] | 9.2 | 37 |  |  |  | 
COC(=O)CC1CCCC2CC(=O)N(OCC(=O)[C@H](CC(=O)O)NC(=O)OCc3ccccc3)C12 (some centres unmarked) [Example 5, 3-Benzyloxycarbonylamino-5-(7-methoxycarbonylmethyl-2-oxo-octahydro-indol-1-yloxy)-4-oxo-pentanoic acid] | 15 | 80 | 883 |  | 34 | 
